Values quoted from earlier work as cited in patent US20090012088A1 (priority 2005, published 2009).
pIC50, pKi: −log10 of the molar value.

Assays:
[1] = tested on: human neuroblastoma cells; settings: cited from earlier work
34I cells = settings: cited from earlier work
PARG [2] = molecular target: T1, PARG (Homo sapiens, UniProt Q86W56); settings: tannins; read-out: in vitro IC50 for PARG; cited from earlier work
PARG [3] = molecular target: T1, PARG; settings: 32P-PAR assay; KM of PAR 1.7 μM; cited from earlier work
PARG [4] = molecular target: T1, PARG; settings: cited from earlier work
[5] = tested on: rat model of focal cerebral ischemia; settings: cited from earlier work
PARG [6] = molecular target: PARG (Bos taurus, UniProt O02776); settings: cited from earlier work
PARG (Bos taurus, UniProt O02776), sequence (O02776 whole entry): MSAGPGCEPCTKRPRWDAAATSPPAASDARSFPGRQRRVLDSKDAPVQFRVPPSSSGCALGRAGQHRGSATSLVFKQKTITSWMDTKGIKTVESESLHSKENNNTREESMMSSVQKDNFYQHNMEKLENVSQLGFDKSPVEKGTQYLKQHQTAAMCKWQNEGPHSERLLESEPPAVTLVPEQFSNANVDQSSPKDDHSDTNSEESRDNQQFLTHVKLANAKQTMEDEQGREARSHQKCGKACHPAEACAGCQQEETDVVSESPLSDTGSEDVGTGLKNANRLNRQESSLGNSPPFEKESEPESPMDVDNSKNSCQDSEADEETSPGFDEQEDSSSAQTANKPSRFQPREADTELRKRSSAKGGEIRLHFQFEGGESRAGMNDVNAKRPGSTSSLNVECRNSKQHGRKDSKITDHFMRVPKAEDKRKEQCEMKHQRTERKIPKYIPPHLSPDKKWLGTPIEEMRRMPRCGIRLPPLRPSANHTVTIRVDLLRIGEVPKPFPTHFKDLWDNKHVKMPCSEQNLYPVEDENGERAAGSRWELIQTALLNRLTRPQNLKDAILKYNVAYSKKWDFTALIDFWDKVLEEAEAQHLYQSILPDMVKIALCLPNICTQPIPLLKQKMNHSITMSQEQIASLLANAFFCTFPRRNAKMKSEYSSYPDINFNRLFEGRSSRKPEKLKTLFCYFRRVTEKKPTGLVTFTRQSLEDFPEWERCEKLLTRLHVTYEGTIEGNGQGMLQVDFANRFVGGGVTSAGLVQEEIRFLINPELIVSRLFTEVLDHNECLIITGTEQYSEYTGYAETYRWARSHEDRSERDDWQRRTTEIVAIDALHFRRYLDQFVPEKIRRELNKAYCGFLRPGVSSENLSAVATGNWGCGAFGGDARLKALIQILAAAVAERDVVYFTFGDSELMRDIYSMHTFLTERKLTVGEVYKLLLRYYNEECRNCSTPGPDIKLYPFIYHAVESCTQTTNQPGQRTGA

T1 sequence (Q86W56 whole entry, species assumed): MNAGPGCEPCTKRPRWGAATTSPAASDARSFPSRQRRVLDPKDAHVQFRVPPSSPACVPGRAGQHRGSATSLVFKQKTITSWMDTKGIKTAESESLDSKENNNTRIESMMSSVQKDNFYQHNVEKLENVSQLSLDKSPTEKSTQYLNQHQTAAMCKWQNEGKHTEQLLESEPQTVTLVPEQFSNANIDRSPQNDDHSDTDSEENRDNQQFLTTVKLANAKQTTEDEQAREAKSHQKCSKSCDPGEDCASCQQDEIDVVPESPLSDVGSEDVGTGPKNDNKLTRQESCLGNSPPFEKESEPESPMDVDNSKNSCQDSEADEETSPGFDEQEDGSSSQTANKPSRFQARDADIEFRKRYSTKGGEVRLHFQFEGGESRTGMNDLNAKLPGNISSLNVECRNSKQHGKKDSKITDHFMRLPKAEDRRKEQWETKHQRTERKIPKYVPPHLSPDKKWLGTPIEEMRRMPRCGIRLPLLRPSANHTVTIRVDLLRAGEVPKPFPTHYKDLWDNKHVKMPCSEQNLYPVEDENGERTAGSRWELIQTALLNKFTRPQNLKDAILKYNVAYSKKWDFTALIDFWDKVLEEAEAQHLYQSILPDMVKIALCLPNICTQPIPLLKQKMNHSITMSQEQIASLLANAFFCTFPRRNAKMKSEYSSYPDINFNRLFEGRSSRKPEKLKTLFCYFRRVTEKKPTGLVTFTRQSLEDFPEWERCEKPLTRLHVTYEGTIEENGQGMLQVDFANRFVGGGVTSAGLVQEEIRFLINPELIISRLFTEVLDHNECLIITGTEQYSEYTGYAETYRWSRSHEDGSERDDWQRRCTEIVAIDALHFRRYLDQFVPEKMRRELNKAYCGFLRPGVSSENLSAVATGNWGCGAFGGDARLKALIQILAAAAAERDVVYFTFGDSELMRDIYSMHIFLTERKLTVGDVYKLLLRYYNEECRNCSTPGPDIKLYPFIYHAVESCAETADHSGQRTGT

C=CCN1CCc2nc(N)sc2CC1 [talipexole]
Concentration required for protection [1]: 1 mM

O=C(OC[C@H]1O[C@@H](OC(=O)c2cc(O)c(O)c(O)c2)[C@@H]2OC(=O)c3cc(O)c(O)c(O)c3-c3c(cc(O)c(O)c3O)C(=O)O[C@H]2[C@@H]1OC(=O)c1cc(O)c(O)c(O)c1Oc1cc2c(c(O)c1O)-c1c(cc(O)c(O)c1O)C(=O)O[C@H]1[C@@H]3OC(=O)c4cc(Oc5c(C(=O)O[C@H]6[C@@H]7OC(=O)c8cc(O)c(O)c(O)c8-c8c(cc(O)c(O)c8O)C(=O)O[C@H]7[C@H](OC(=O)c7cc(O)c(O)c(O)c7)O[C@@H]6COC(=O)c6cc(O)c(O)c(O)c6)cc(O)c(O)c5O)c(O)c(O)c4-c4c(cc(O)c(O)c4O)C(=O)O[C@H]3[C@H](OC(=O)c3cc(O)c(O)c(O)c3)O[C@@H]1COC2=O)c1cc(O)c(O)c(O)c1 [nobotanin E]
Inhibition of PAR catabolism in intact cells (34I cells): little inhibitory effect

nobotanin B
pIC50 (PARG [2]): 5.32
Inhibition of PAR catabolism in intact cells (34I cells): concentration-dependent inhibition of PAR catabolism

CCN(CC)CCOc1ccc2c(c1)C(=O)c1cc(OCCN(CC)CC)ccc1-2 [Tilorone]
pKi (PARG [3]): ~5.15

CCC(C)CC1CCC(O)(C(C)(O)C(=O)NC2C(=O)N3NCCCC3C(=O)N(O)C(C)C(=O)NCC(=O)N3NCCCC3C(=O)N(O)C(C)C(=O)OC2C(C)C)OC1C (centres unmarked) [PD 124,966]
IC50 for PARG (PARG [4]): 40 µg/mL

O=C(NCCCc1ccccc1)c1ccc2c(c1)C(=O)c1cc(C(=O)NCCCc3ccccc3)ccc1-2 [GPI 16552, 2,7-Bis[N-(3-phenyl-propyl)carbamoyl]-9-Oxo-9H-fluorene]
Reduction of total infarct volume ([5]; 30-minute pre-ischemia or 1- or 2-hour post-ischemia treatment): 47-53%
Protection in cortical areas ([5]; rat, in vivo): 43-59%
Protection in subcortical areas ([5]; rat, in vivo): 28-40%

Nc1ncnc2c1ncn2[C@@H]1O[C@H](COP(=O)(O)OP(=O)(O)OC[C@H]2OC(O)[C@H](O)[C@@H]2O)[C@@H](O)[C@H]1O (some centres unmarked) [ADP-ribose]
pIC50 (PARG [6]; substrate analogues, FIG. 9): 3.92

O=C(OCC1OC(OC(=O)c2cc(O)c(O)c(O)c2)C2OC(=O)c3cc(O)c(O)c(O)c3-c3c(cc(O)c(O)c3O)C(=O)OC2C1OC(=O)c1cc(O)c(O)c(O)c1Oc1cc2c(c(O)c1O)-c1c(cc(O)c(O)c1O)C(=O)OC1C(COC2=O)OC(OC(=O)c2cc(O)c(O)c(O)c2)C2OC(=O)c3cc(O)c(O)c(O)c3-c3c(cc(Oc4c(C(=O)OC5C(COC(=O)c6cc(O)c(O)c(O)c6)OC(OC(=O)c6cc(O)c(O)c(O)c6)C6OC(=O)c7cc(O)c(O)c(O)c7-c7c(cc(Oc8c(C(=O)OC9OC%10COC(=O)c%11cc(O)c(O)c(O)c%11-c%11c(cc(O)c(O)c%11O)C(=O)OC%10C%10OC(=O)c%11cc(O)c(O)c(O)c%11-c%11c(cc(O)c(O)c%11O)C(=O)OC9%10)cc(O)c(O)c8O)c(O)c7O)C(=O)OC56)cc(O)c(O)c4O)c(O)c3O)C(=O)OC12)c1cc(O)c(O)c(O)c1 (centres unmarked) [nobotanin K]
pIC50 (PARG [2]): 6.36
Inhibition of PAR catabolism in intact cells (34I cells): little inhibitory effect

Nc1ccc2cc3ccc(N)cc3nc2c1 [profavine]
pKi (PARG [3]): 4.44

CCOc1ccc2nc3cc(N)ccc3c(N)c2c1 [ethacridine]
pKi (PARG [3]): > 5.15

adenosine diphosphate (hydroxymethyl)pyrrolidinediol [ADP-HPD]
IC50 lower than that of ADP-ribose (PARG [6]): 1000 fold

Oenothein B
pIC50 (PARG [2]): 5.42

pargamicin
IC50 for PARG (PARG [4]): 28 µg/mL
